According to patent US20120196828A1, “SENSITIZATION OF CANCER CELLS TO TREATMENT” (priority 2011, published 2012):
Values joined by “and” are separate entries in the source; they are usually repeats but may differ in a detail not shown here. Identical values can stand only once.

Tests used:
[1] = Body weight, deaths and clinical observations in the BxPC-3 xenograft study; settings: for Starting Weight: baseline body weight, female athymic nude mice, BxPC-3 xenograft study
Protocol: (§1) All experiments were conducted on female athymic nude mice (Hsd:Athymic Nude-Foxn1nu) supplied by Harlan (Indianapolis, Ind.). Mice were received at four weeks of age, 12-15 grams in weight, and were acclimated for seven days prior to handling. The mice were housed in microisolator cages (Lab Products, Seaford, Del.) and maintained under specific pathogen-free conditions. All procedures were carried out under appropriate institutional guidelines for animal care.
(§2) Seven days following inoculation, tumors were measured using calipers and tumor weight was calculated using the animal study management software, Study Director V.1.7.54 k (Study Log). See Britten C D, et al. Enhanced antitumor activity of 6-hydroxymethylacylfulvene in combination with irinotecan and 5-fluorouracil in the HT29 human colon tumor xenograft model. Cancer Res 59:1049-1053, 1999. […] Body weights were recorded when the mice were randomized and were taken twice weekly thereafter in conjunction with tumor measurements, on each of Days 1, 4, 8, 11, 15, 18, 22, 26, 30, 33, and 36.
(§3) The study was terminated when the vehicle control reached an endpoint of 1500 mg, on Day 36.

[2] = system: BxPC-3 Human Pancreas Tumor Xenograft; experiment: BxPC-3 human pancreas tumor xenograft model: tumor weight and tumor growth inhibition; type: in vivo, mouse; settings: for Day 26 Tumor Weight: mean ± Std Err, treatment administered until Day 26
Protocol: Compounds tested in the experiment were as follows. […] A concentration of 4.8 mg/ml was formulated to deliver a 24 mg/kg dose at a 5 ml/kg dose volume when administered subcutaneously. […] Nab-paclitaxel was manufactured by Abraxis BioScience LLC (Bridgewater, N.J.) and diluted in a 0.9% NaCl solution to a concentration of 1.5 mg/ml to deliver 15 mg/kg, in a 10 ml/kg dose volume. All standard agent preparations were made fresh prior to their administration.
BxPC-3 cells were obtained and prepared as follows. The BxPC-3 pancreas tumor cell line was received from American Type Culture Collection (ATCC, Manassas, Va.). Cultures were maintained in RPMI 1640 medium (Hyclone, Logan, Utah) supplemented with 5% fetal bovine serum. The cells were housed in a 5% CO2 atmosphere. The cultures were expanded in tissue culture flasks at a 1:3 split ratio until a sufficient amount of cells were harvested.
as §1
BxPC-3 Human Pancreas Tumor Xenograft Model: Female athymic nude mice per treatment condition were inoculated subcutaneously in the right flank with 0.1 ml of a 50% RPMI 1640/50% Matrigel™ (BD Biosciences, Bedford, Mass.) mixture containing a suspension of BxPC-3 tumor cells (approximately 5×10^6 cells/mouse).
as §2, §3
Mean tumor growth inhibition (TGI) was calculated utilizing Formula A below (deaths were not included in the TGI calculations).
All statistical analyses in the xenograft study were performed with GraphPad Prism® v4 software.

anti-thrombin III = anti-thrombin III (Homo sapiens, UniProt P01008); settings: cited from earlier work
Sequence of anti-thrombin III (P01008 33-464, species assumed): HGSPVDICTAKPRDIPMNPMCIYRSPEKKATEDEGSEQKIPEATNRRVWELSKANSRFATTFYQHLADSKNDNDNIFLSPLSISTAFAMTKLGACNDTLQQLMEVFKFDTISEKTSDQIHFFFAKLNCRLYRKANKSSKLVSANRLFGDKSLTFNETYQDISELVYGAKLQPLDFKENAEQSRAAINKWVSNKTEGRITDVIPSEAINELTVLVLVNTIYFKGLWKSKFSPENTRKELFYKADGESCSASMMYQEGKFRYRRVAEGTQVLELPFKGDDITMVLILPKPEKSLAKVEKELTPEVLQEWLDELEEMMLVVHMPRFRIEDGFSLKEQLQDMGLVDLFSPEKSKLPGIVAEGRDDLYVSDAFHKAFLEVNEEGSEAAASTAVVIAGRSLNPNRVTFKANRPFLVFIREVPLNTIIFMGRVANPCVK

[3] = total deaths on or before Day 26, N = 10 per group
[4] = ANOVA with Tukey's Multiple Comparison Test
[5] = Day 26, group mean, dosing per Table 1

## Nc1ccn([C@@H]2O[C@H](CO)[C@@H](O)C2(F)F)c(=O)n1 [Gemcitabine]
[1]
  Day 1 Average Weight: 22.48 g
  Day 11 Average Weight: 20.52 g
  Day 15 Average Weight: 21.70 g
  Starting Weight: 22.48 g
[1]; Day 4
  Day 4 Average Weight: 21.76 g
[1]; Day 8
  Day 8 Average Weight: 20.91 g
[1]; Day 18
  Day 18 Average Weight: 23.15 g
[1]; Day 22, vs starting weight
  Day 22 % Weight Loss or Gain: 8.59%
[1]; Table 13 Day 26
  Day 26 Average Weight: 24.21 g
[1]; Table 13 Day 26, vs starting weight
  Day 26 % Weight Loss or Gain: 7.70%
[1]; body weight of mice
  Maximum weight loss: 8.7%
[1]; mouse, in vivo
  Day 4 % Weight Loss or Gain: −3.20%
  Day 8 % Weight Loss or Gain: −6.98%
  Day 11 % Weight Loss or Gain: −8.72%
  Day 15 % Weight Loss or Gain: −3.47%
  Day 18 % Weight Loss or Gain: 2.98%
  Day 22 % Weight Loss or Gain: 7.74%
  Day 22 Average Weight: 24.22 g
  Day 26 % Weight Loss or Gain: 7.96%
  Day 26 Average Weight: 24.27 g
  Day 30 % Weight Loss or Gain: 7.61%
  Day by which the mice recovered their weight: ≤ 18 days
  Day on which maximum weight loss was reached: 11 days
[1]; [3]
  Deaths: 0
[1]; total deaths on or before Day 36, n = 10 per group
  Deaths: 0
[2]; [4]
  Difference in tumor weight on Day 26 compared to vehicle control: No significant difference
  Difference in tumor weight on Day 36 compared to vehicle control: No significant difference
[2]; Day 1 (randomization), group mean, dosing per Table 1
  Mean tumor weight, Day 1: 124.3 mg
[2]; Day 1 (randomization), group median, dosing per Table 1
  Median tumor weight, Day 1: 121.1 mg
[2]; Day 1 (randomization), individual mouse, dosing per Table 1 (ODSH 24, oxaliplatin 10, gemcitabine 80, nab-paclitaxel 15 mg/kg)
  Tumor weight, individual mouse, Day 1: 132 mg and 139 mg and 126 mg and 104 mg and 107 mg and 111 mg and 116 mg and 166 mg and 146 mg and 96 mg
[2]; Day 4, group mean, dosing per Table 1
  Mean tumor weight, Day 4: 152.5 mg
[2]; Day 4, group median, dosing per Table 1
  Median tumor weight, Day 4: 140.2 mg
[2]; Day 4, individual mouse, dosing per Table 1
  Tumor weight, individual mouse, Day 4: 189 mg and 214 mg and 126 mg and 122 mg and 131 mg and 133 mg and 146 mg and 176 mg and 155 mg and 135 mg
[2]; Day 8, group mean, dosing per Table 1
  Mean tumor weight, Day 8: 162.2 mg
[2]; Day 8, group median, dosing per Table 1
  Median tumor weight, Day 8: 147.4 mg
[2]; Day 8, individual mouse, dosing per Table 1
  Tumor weight, individual mouse, Day 8: 193 mg and 282 mg and 129 mg and 130 mg and 125 mg and 161 mg and 175 mg and 180 mg and 134 mg
[2]; Day 11, group mean, dosing per Table 1
  Mean tumor weight, Day 11: 198.2 mg
[2]; Day 11, group median, dosing per Table 1
  Median tumor weight, Day 11: 191.0 mg
[2]; Day 11, individual mouse, dosing per Table 1
  Tumor weight, individual mouse, Day 11: 235 mg and 328 mg and 146 mg and 145 mg and 119 mg and 150 mg and 202 mg and 242 mg and 234 mg and 180 mg
[2]; Day 15, group mean, dosing per Table 1
  Mean tumor weight, Day 15: 263.8 mg
[2]; Day 15, group median, dosing per Table 1
  Median tumor weight, Day 15: 259.2 mg
[2]; Day 15, individual mouse, dosing per Table 1
  Tumor weight, individual mouse, Day 15: 319 mg and 375 mg and 211 mg and 218 mg and 181 mg and 228 mg and 245 mg and 288 mg and 300 mg and 274 mg
[2]; Day 18, group mean, dosing per Table 1
  Mean tumor weight, Day 18: 332.1 mg
[2]; Day 18, group median, dosing per Table 1
  Median tumor weight, Day 18: 340.1 mg
[2]; Day 18, individual mouse, dosing per Table 1
  Tumor weight, individual mouse, Day 18: 413 mg and 379 mg and 258 mg and 267 mg and 224 mg and 269 mg and 441 mg and 376 mg and 389 mg and 304 mg
[2]; Day 22, group mean, dosing per Table 1
  Mean tumor weight, Day 22: 459.4 mg
[2]; Day 22, group median, dosing per Table 1
  Median tumor weight, Day 22: 451.9 mg
[2]; Day 22, individual mouse, dosing per Table 1
  Tumor weight, individual mouse, Day 22: 621 mg and 514 mg and 372 mg and 400 mg and 350 mg and 332 mg and 592 mg and 509 mg and 500 mg and 404 mg
[2]; [5]
  Mean tumor weight, Day 26: 594.7 mg
[2]; Day 26, group median, dosing per Table 1
  Median tumor weight, Day 26: 605.8 mg
[2]; Day 26, individual mouse, dosing per Table 1
  Tumor weight, individual mouse, Day 26: 797 mg and 739 mg and 468 mg and 534 mg and 431 mg and 389 mg and 730 mg and 628 mg and 647 mg and 583 mg
[2]; Day 26
  Day 26 Tumor Weight: 594.7 ± 43.8 mg
[2]; Day 30, group mean of surviving mice, dosing per Table 1
  Mean tumor weight, Day 30: 874.3 mg
[2]; Day 30, group median, dosing per Table 1
  Median tumor weight, Day 30: 858.0 mg
[2]; Day 30, individual mouse, dosing per Table 1
  Tumor weight, individual mouse, Day 30: 1,121 mg and 1,008 mg and 674 mg and 860 mg and 667 mg and 589 mg and 1,150 mg and 856 mg and 992 mg and 826 mg
[2]; Day 33, group mean of surviving mice, dosing per Table 1
  Mean tumor weight, Day 33: 1,044.2 mg
[2]; Day 33, group median, dosing per Table 1
  Median tumor weight, Day 33: 1,033.3 mg
[2]; Day 33, individual mouse, dosing per Table 1
  Tumor weight, individual mouse, Day 33: 1,367 mg and 1,132 mg and 878 mg and 1,036 mg and 936 mg and 624 mg and 1,275 mg and 1,030 mg and 1,158 mg and 1,008 mg
[2]; Day 36, treatment administered until Day 35
  Day 36 Tumor Weight: 1288.8 ± 74.3 mg
[2]; Day 36, group median, dosing per Table 1
  Median tumor weight, Day 36: 1,306.7 mg
[2]; Day 36, individual mouse, dosing per Table 1
  Tumor weight, individual mouse, Day 36: 1,573 mg and 1,368 mg and 963 mg and 1,347 mg and 1,106 mg and 923 mg and 1,596 mg and 1,482 mg and 1,267 mg and 1,265 mg
[2]; Day 36 vs Day 1, relative to vehicle control (Group 1), deaths not included
  Day 36 % TGI: 16.8%

## O=C1[O][Pt]2([NH][C@@H]3CCCC[C@H]3[NH]2)[O]C1=O [Oxaliplatin]
[1]
  Day 1 Average Weight: 20.82 g
  Day 11 Average Weight: 20.12 g
  Day 15 Average Weight: 20.81 g
  Starting Weight: 20.82 g
[1]; Day 4, vs starting weight
  Day 4 % Weight Loss or Gain: −2.02%
[1]; Day 8, vs starting weight
  Day 8 % Weight Loss or Gain: −0.82%
[1]; Day 15, vs starting weight
  Day 15 % Weight Loss or Gain: −0.05%
[1]; Day 18, vs starting weight
  Day 18 % Weight Loss or Gain: −1.78%
[1]; mouse, in vivo
  Day bruising of the tails was first observed: 11 days
[1]; of ten mice
  Mice demonstrating bruising on the tails or abdomen (site of injection): One mouse
[1]; [3]
  Deaths: 0
[2]; [4]
  Difference in tumor weight on Day 26 compared to vehicle control: No significant difference
[2]; [5]
  Mean tumor weight, Day 26: 635.0 mg
[2]; Day 26
  Day 26 Tumor Weight: 635.0 ± 52.3 mg
[2]; Day 26 vs Day 1, relative to vehicle control (Group 1), deaths not included
  Day 26 % TGI: 8.0% and 8.0 (10/10) %

## heparin
anti-thrombin III
  Kd: 1560 nM
  Kd for anti-thrombin III: 22 µg/mL
